Where a name gives a salt, the structure may show the parent alone.
Key:
[1] = system: adjuvant arthritis models in rats; assay: Paw edema inhibitory action test using adjuvant arthritis models in rats; format: in vivo; settings: 504 h; Lewis rat, adjuvant-untreated (secondary inflammation) paw, day 21; 10 mg/kg/day oral once a day, day 0 to day 20; average of 8 rats per group; read-out: Paw edema inhibition rate (%)
Description: A paw edema inhibitory action test of the compounds of the present invention was performed using an adjuvant arthritis model in rats, which is one of the widely-used methods of evaluating in vivo antiarthritis effects of drugs.
As one of the widely-used methods of evaluating antiarthritic effects of drugs, a paw edema inhibitory action test using adjuvant arthritis models in rats is known. Accordingly, a paw edema inhibitory action test of the compounds of the present invention was performed, the paw edema inhibition rate was calculated, and the antiarthritic effect of each of the compounds of the present invention was evaluated using the obtained rate as an index.
A 1% aqueous methyl cellulose solution was added to each test compound to suspend it, whereby a 2 mg/mL test compound suspension was prepared.
Liquid paraffin was added to Mycobacterium butyricum to suspend it, whereby 6 mg/mL adjuvant was prepared.
• 1) The adjuvant (0.1 mL) was injected subcutaneously into a left hind paw sole of each rat (male, 9 weeks of age, Lewis rat) to induce arthritis. • 2) From the adjuvant injection day (i.e. on day 0) to day 20, the test compound suspension (10 mg/kg/day) was orally administered once a day consecutively. • 3) On the adjuvant injection day, day 1, day 4, day 7, day 11, day 14, day 18 and day 21, each paw volume of both hind paws was measured with a plethysmometer. • 4) A test was performed in the same manner as in 1) to 3) except that the 1% aqueous methyl cellulose solution was used instead of the test compound suspension, and the result was used as a control. (Method of Evaluation)
Each paw edema inhibition rate of paw edema in an adjuvant-untreated paw (secondary inflammation paw) in each test compound administration group to paw edema in a secondary inflammation paw in a control group was calculated, and the antiarthritic effect of each of the compounds of the present invention was evaluated using the obtained rate as an index.
The paw edema rate was calculated according to the following calculation equation 1, and then the paw edema inhibition rate (the average of 8 rats per group), which was used as an index of the antiarthritic effect, was calculated according to the calculation equation 2. Paw edema rate (%)=(Paw volume after adjuvant treatment/paw volume before adjuvant treatment)×100 (Calculation Equation 1) Paw edema inhibition rate (%)=100−{(Sx−100)/(So−100)}×100 (Calculation Equation 2) So: Paw edema rate of control group Sx: Paw edema rate of test compound suspension administration group (Test Results and Discussion)

[2] = system: choroidal neovascularization models in rats; assay: Neovascularization incidence test using laser-induced choroidal neovascularization models in rats; format: in vivo; settings: 168 h; Brown Norway rat, krypton laser photocoagulation; 30 mg/kg/day oral once a day for 7 days; fluorescein fundus photography on day 7; average of 3 to 4 rats and 6 to 8 eyes; read-out: Ratio of neovascularization incidence rate (% of Control)
Description: A neovascularization incidence test of the compounds of the present invention was performed using a choroidal neovascularization model in rats, which is one of the widely-used methods of evaluating in vivo choroidal neovascularization inhibitory effects of drugs.
As one of the widely-used methods of evaluating choroidal neovascularization inhibitory effects of drugs, a neovascularization incidence test using choroidal neovascularization models in rats was reported in Graefe's Arch. Cli. Exp. Ophthalmol., 235, 313-319 (1997). According to the method described in the above-mentioned document, a neovascularization incidence test of the compounds of the present invention was performed, the ratio of neovascularization incidence rate of each of the compounds of the present invention administration groups to a neovascularization incidence rate of vehicle administration group (control group) was calculated, and the choroidal neovascularization inhibitory effect of each of the compounds of the present invention was evaluated using the obtained ratio as an index.
A 1% aqueous methyl cellulose solution was added to each test compound to suspend it, whereby a 6 mg/10 mL test compound suspension was prepared.
• 1) A 7:1 mixed solution (1 mL/kg) of a 5% ketamine hydrochloride injection and a 2% xylazine hydrochloride injection was administered intramuscularly to rats (Brown Norway male rat, 8 weeks of age, weight: 200 to 250 g) to anesthetize them systemically. • 2) A tropicamide-phenylephrine hydrochloride ophthalmic solution (trade name: Mydrin-P) was instilled into eyes to cause mydriasis, and then photocoagulation was performed in a Bruch's membrane of each rat using a krypton laser photocoagulation apparatus.
The laser photocoagulation was performed at 8 spots per eye sparsely avoiding thick retinal vessels in a posterior section of ocular fundus and focusing on the deep layer of the retina. Photocoagulation conditions were adjusted to 100 μm of spot size, 100 mW of intensity and 0.1 sec. dulation. • 3) After the photocoagulation, the ocular fundus was photographed to confirm photocoagulation (laser irradiation) sites. (Method of Test and Method of Measurement) • 1) From the laser photocoagulation day (i.e. on day 0) to day 6, the test compound suspension (30 mg/kg/day) was administered orally once a day for 7 consecutive days. • 2) As the vehicle administration group (control group), a test was performed in the same manner as in 1) except that the 1% aqueous methyl cellulose solution was used instead of the test compound suspension, and the result was used as a control. (Method of Evaluation) • 1) On day 7 after the photocoagulation, 0.1 mL of a 10% aqueous fluorescein solution was injected into a tail vein of the rat, and fluorescein fundus photography was performed. • 2) Next, in the fluorescein fundus photography, a spot where fluorescence leak was not observed was judged as negative, and a spot where fluorescence leak was observed was judged as positive. Photocoagulation sites where a little fluorescence leak was observed were judged as positive when two such sites are present. • 3) The neovascularization incidence rate was calculated according to the calculation equation 1. The ratio of the neovascularization incidence rate of the test compound administration group to that of the vehicle administration group was calculated according to the calculation equation 2 using the neovascularization incidence rate of the respective administration groups. […]

SMILES | inhibition in vivo at 10 mg/kg/day [1] | response vs control in vivo at 30 mg/kg/day [2]
Cc1cc(C)cc(NC(=O)c2cccnc2SCc2ccnc(N)c2)c1 [Compound 3-1, 2-(2-Aminopyridin-4-ylmethylthio)-N-(3,5-dimethylphenyl)pyridine-3-carboxamide monohydrochloride] | 48% | 12%
CNc1cc(CSc2ncccc2C(=O)Nc2ccc(OC(F)(F)F)cc2)ccn1 [Compound 3-8, 2-(2-Methylaminopyridin-4-ylmethylthio)-N-(4-trifluoromethoxyphenyl)pyridine-3-carboxamide monohydrochloride] | 30% | 6%
Nc1cc(CSc2ncccc2C(=O)Nc2ccc(OC(F)(F)F)cc2)ccn1 [Compound 3-10, 2-(2-Aminopyridin-4-ylmethylthio)-N-(4-trifluoromethoxyphenyl)pyridine-3-carboxamide] | 35% | 7%
CC(=O)Nc1cc(CSc2ncccc2C(=O)Nc2cc(C)cc(C)c2)ccn1 [Compound 4-1, 2-(2-Acetylaminopyridin-4-ylmethylthio)-N-(3,5-dimethylphenyl)pyridine-3-carboxamide] | 90% | 3%
CC(=O)Nc1cc(CSc2ncccc2C(=O)Nc2ccc(Cl)cc2)ccn1 [Compound 4-10, 2-(2-Acetylaminopyridin-4-ylmethylthio)-N-(4-chlorophenyl)pyridine-3-carboxamide] | 71% | 9%
CC(=O)Nc1cc(CSc2ncccc2C(=O)Nc2ccc(OC(F)(F)F)cc2)ccn1 [Compound 4-11, 2-(2-Acetylaminopyridin-4-ylmethylthio)-N-(4-trifluoromethoxyphenyl)pyridine-3-carboxamide] | 65% | 0%
CNC(=O)Nc1cc(CSc2ncccc2C(=O)Nc2cc(C)cc(C)c2)ccn1 [Compound 9-1, N-(3,5-Dimethylphenyl)-2-[2-(N′-methylureido)pyridin-4-ylmethylthio]pyridine-3-carboxamide] | 55% | 8%
CC(=O)OCC(=O)Nc1cc(CSc2ncccc2C(=O)Nc2cc(C)cc(C)c2)ccn1 [Compound 10-1, 2-(2-Acetoxyacetylaminopyridin-4-ylmethylthio)-N-(3,5-dimethylphenyl)pyridine-3-carboxamide] | 59% | 11%
O=C(CO)Nc1cc(CSc2ncccc2C(=O)Nc2ccc(OC(F)(F)F)cc2)ccn1 [Compound 12-1, 2-(2-Hydroxyacetylaminopyridin-4-ylmethylthio)-N-(4-trifluoromethoxyphenyl)pyridine-3-carboxamide] | 48% | 6%

From patent publication US7544703B2, “Cyclic compound having 4-pyridylalkylthio group having substituted or unsubstituted amino group introduced therein” (Santen Pharmaceutical Co., Ltd., priority 2004, dated 2009)
